Test results reported in ChEMBL document CHEMBL5346973 (J Med Chem, 2023).
Calls of active or inactive are those of the source. The calls are words filed in the database; no cut-off is given here. Where a SMILES comes first, the peptide text is derived from it.

Columns and labels:
Type in all cases: cell-based
[1] = molecular target: Nicotinic acetylcholine receptor alpha9/alpha10 (Rattus norvegicus) (UniProt P43144+Q9JLB5); test: Antagonist activity at rat alpha9alpha10 nACh receptor expressed in Xenopus oocyte assessed as inhibition of acetylcholine-induced response at -70 mV holding potential at 10 uM measured after 5 mins by voltage-clamp based electrophysiological assay
[2] = molecular target: Nicotinic acetylcholine receptor alpha9/alpha10 (Rattus norvegicus, UniProt P43144+Q9JLB5); test: Antagonist activity at rat alpha9alpha10 nACh receptor expressed in Xenopus oocyte assessed as inhibition of acetylcholine-induced response at -70 mV holding potential by voltage-clamp based electrophysiological assay
[3] = molecular target: Neuronal acetylcholine receptor subunit alpha-7 (Rattus norvegicus, UniProt Q05941); test: Antagonist activity at rat alpha7 nACh receptor expressed in Xenopus oocyte assessed as inhibition of acetylcholine-induced response at -70 mV holding potential by voltage-clamp based electrophysiological assay
Chain of Neuronal acetylcholine receptor subunit alpha-7 (Q05941 whole entry): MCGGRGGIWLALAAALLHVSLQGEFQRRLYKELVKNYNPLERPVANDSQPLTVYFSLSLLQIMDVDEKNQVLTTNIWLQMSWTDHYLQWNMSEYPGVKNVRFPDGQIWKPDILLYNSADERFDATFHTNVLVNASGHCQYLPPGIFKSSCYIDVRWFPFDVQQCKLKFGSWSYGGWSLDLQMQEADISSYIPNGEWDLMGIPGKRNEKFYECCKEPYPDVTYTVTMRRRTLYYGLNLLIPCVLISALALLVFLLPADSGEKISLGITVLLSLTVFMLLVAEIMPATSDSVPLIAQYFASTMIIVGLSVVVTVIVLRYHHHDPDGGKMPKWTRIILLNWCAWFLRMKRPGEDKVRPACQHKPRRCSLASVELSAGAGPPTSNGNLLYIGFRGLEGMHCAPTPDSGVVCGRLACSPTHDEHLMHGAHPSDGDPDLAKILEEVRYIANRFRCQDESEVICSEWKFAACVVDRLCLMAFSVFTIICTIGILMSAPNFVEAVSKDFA

Chain of Nicotinic acetylcholine receptor alpha9/alpha10 (P43144 whole entry): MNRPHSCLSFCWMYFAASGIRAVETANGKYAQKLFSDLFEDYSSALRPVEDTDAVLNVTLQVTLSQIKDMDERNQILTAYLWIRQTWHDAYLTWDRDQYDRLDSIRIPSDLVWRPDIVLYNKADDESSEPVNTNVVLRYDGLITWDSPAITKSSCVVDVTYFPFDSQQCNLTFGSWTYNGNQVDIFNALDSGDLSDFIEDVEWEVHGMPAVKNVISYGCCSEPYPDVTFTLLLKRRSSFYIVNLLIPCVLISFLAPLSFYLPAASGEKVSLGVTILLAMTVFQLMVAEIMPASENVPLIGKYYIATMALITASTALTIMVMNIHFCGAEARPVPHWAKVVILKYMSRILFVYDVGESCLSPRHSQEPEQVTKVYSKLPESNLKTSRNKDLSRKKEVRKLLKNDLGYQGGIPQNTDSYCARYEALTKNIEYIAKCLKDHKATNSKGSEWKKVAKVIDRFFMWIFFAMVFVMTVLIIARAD
Chain of Nicotinic acetylcholine receptor alpha9/alpha10 (Q9JLB5 whole entry): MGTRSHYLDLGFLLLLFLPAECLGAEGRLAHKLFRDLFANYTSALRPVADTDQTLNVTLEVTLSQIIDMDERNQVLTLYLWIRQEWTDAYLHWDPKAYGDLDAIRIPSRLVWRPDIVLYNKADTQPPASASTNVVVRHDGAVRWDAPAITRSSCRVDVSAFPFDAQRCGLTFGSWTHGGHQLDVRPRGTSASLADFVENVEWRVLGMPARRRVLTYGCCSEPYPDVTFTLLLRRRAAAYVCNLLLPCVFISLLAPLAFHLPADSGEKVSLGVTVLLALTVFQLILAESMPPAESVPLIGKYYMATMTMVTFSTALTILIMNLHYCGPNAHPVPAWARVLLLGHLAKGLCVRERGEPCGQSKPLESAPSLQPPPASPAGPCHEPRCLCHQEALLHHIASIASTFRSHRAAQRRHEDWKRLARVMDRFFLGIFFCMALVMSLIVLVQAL

For `CC[C@H](C)[C@@H]1NC(=O)[C@H](C)NC(=O)[C@H](C)NC(=O)[C@@H](NC(=O)[C@H](Cc2ccc(O)cc2)NC(=O)[C@H](C)NC(=O)[C@H](C)NC(=O)[C@H](C)NC(=O)[C@H](C)NC(=O)[C@H](CC(=O)O)NC(=O)[C@H](Cc2ccc(O)cc2)NC(=O)[C@@H]2CCCN2C(=O)[C@H](CO)NC(=O)[C@H](C)NC(=O)[C@@H]2CSSC[C@H](NC(=O)[C@@H](N)[C@@H](C)O)C(=O)N[C@@H](C)C(=O)N[C@@H](CO)C(=O)N[C@@H](CO)C(=O)NCC(=O)N[C@@H](C)C(=O)N[C@@H](Cc3ccc(O)cc3)C(=O)N2)CSSC[C@@H](C(=O)N[C@H](C(=O)O)C(C)C)NC(=O)[C@H](C)NC(=O)[C@H](CC(=O)O)NC(=O)[C@H]([C@@H](C)O)NC1=O` (HELM PEPTIDE1{T.C.A.S.S.G.A.Y.C.A.S.P.Y.D.A.A.A.A.Y.C.A.A.I.T.D.A.C.V}$PEPTIDE1,PEPTIDE1,2:R3-9:R3|PEPTIDE1,PEPTIDE1,20:R3-27:R3$$$V2.0), the Activity [1] was “inactive” and the IC50 [2] was over 10000 nM.
In the case of `CC[C@H](C)[C@@H]1NC(=O)[C@H](CCCNC(=N)N)NC(=O)[C@H](CCCNC(=N)N)NC(=O)[C@@H](NC(=O)[C@H](Cc2ccc(O)cc2)NC(=O)[C@H](CCCNC(=N)N)NC(=O)[C@H](CCCNC(=N)N)NC(=O)[C@H](CCCNC(=N)N)NC(=O)[C@H](CCCNC(=N)N)NC(=O)[C@H](CC(=O)O)NC(=O)[C@H](Cc2ccc(O)cc2)NC(=O)[C@@H]2CCCN2C(=O)[C@H](CO)NC(=O)[C@H](C)NC(=O)[C@@H]2CSSC[C@H](NC(=O)[C@@H](N)[C@@H](C)O)C(=O)N[C@@H](C)C(=O)N[C@@H](CO)C(=O)N[C@@H](CO)C(=O)N[C@@H](C)C(=O)N[C@@H](CCCNC(=N)N)C(=O)N[C@@H](Cc3ccc(O)cc3)C(=O)N2)CSSC[C@@H](C(=O)N[C@H](C(=O)O)C(C)C)NC(=O)[C@H](C)NC(=O)[C@H](CC(=O)O)NC(=O)[C@H]([C@@H](C)O)NC1=O` (HELM PEPTIDE1{T.C.A.S.S.A.R.Y.C.A.S.P.Y.D.R.R.R.R.Y.C.R.R.I.T.D.A.C.V}$PEPTIDE1,PEPTIDE1,2:R3-9:R3|PEPTIDE1,PEPTIDE1,20:R3-27:R3$$$V2.0), the Activity [1] is reported as “inactive” and the IC50 [2] is reported as over 10000 nM.
In the case of `CC[C@H](C)[C@@H]1NC(=O)[C@H](CCCNC(=N)N)NC(=O)[C@H](CCCNC(=N)N)NC(=O)[C@@H](NC(=O)[C@H](Cc2ccc(O)cc2)NC(=O)[C@H](C)NC(=O)[C@H](C)NC(=O)[C@H](C)NC(=O)[C@H](C)NC(=O)[C@H](CC(=O)O)NC(=O)[C@H](Cc2ccc(O)cc2)NC(=O)[C@@H]2CCCN2C(=O)[C@H](CO)NC(=O)[C@H](CCCNC(=N)N)NC(=O)[C@@H]2CSSC[C@H](NC(=O)[C@@H](N)[C@@H](C)O)C(=O)N[C@@H](CCCNC(=N)N)C(=O)N[C@@H](CO)C(=O)N[C@@H](CCCNC(=N)N)C(=O)NCC(=O)N[C@@H](CCCNC(=N)N)C(=O)N[C@@H](Cc3ccc(O)cc3)C(=O)N2)CSSC[C@@H](C(=O)N[C@H](C(=O)O)C(C)C)NC(=O)[C@H](C)NC(=O)[C@H](CC(=O)O)NC(=O)[C@H]([C@@H](C)O)NC1=O` (HELM PEPTIDE1{T.C.R.S.R.G.R.Y.C.R.S.P.Y.D.A.A.A.A.Y.C.R.R.I.T.D.A.C.V}$PEPTIDE1,PEPTIDE1,2:R3-9:R3|PEPTIDE1,PEPTIDE1,20:R3-27:R3$$$V2.0), the Activity [1] is reported as “inactive” and the IC50 [2] is reported as over 10000 nM.
Work on `CC[C@H](C)[C@@H]1NC(=O)[C@H](CCCNC(=N)N)NC(=O)[C@H](CCCNC(=N)N)NC(=O)[C@@H]2CSSC[C@H](NC(=O)[C@H](Cc3ccc(O)cc3)NC(=O)[C@H](CCCNC(=N)N)NC(=O)CNC(=O)[C@H](CO)NC(=O)[C@H](CO)NC(=O)[C@H](C)NC(=O)[C@@H](NC(=O)[C@@H](N)[C@@H](C)O)CSSC[C@@H](C(=O)N[C@H](C(=O)O)C(C)C)NC(=O)[C@H](C)NC(=O)[C@H](CC(=O)O)NC(=O)[C@H]([C@@H](C)O)NC1=O)C(=O)N[C@@H](CCCNC(=N)N)C(=O)N[C@@H](CO)C(=O)N1CCC[C@H]1C(=O)N[C@@H](Cc1ccc(O)cc1)C(=O)N[C@@H](CC(=O)O)C(=O)N[C@@H](CCCNC(=N)N)C(=O)N[C@@H](CCCNC(=N)N)C(=O)N[C@@H](CCCNC(=N)N)C(=O)N[C@@H](CCCNC(=N)N)C(=O)N[C@@H](Cc1ccc(O)cc1)C(=O)N2` yielded an IC50 [3] of 9050 nM and an IC50 [2] of 37 nM.
`CC[C@H](C)[C@H]1NC(=O)[C@H](CCCNC(=N)N)NC(=O)[C@H](CCCNC(=N)N)NC(=O)[C@@H](NC(=O)[C@H](Cc2ccc(O)cc2)NC(=O)[C@H](CCCNC(=N)N)NC(=O)[C@H](CCCNC(=N)N)NC(=O)[C@H](CCCNC(=N)N)NC(=O)[C@H](CCCNC(=N)N)NC(=O)[C@H](CC(=O)O)NC(=O)[C@H](Cc2ccc(O)cc2)NC(=O)[C@@H]2CCCN2C(=O)[C@H](CO)NC(=O)[C@H](CCCNC(=N)N)NC(=O)[C@@H]2CSSC[C@H](NC(=O)[C@@H](N)[C@@H](C)O)C(=O)N[C@@H](C)C(=O)N[C@@H](CO)C(=O)N[C@@H](CO)C(=O)NCC(=O)N[C@@H](CCCNC(=N)N)C(=O)N[C@@H](Cc3ccc(O)cc3)C(=O)N2)CSSC[C@@H](C(=O)N[C@H](C(=O)O)C(C)C)NC(=O)[C@H](C)NC(=O)[C@H](CC(=O)O)NC(=O)[C@H]([C@@H](C)O)NC1=O` gave an IC50 [3] of 1130 nM and an IC50 [2] of 74 nM.
